Experimental data: patent publication US20060099284A1, “Composition containing an extract of fructus psoraleae for inhibiting anxiety and depression, improving memory and treating dementia” (priority 2004, published 2006)

Tested on: male ICR mouse
Assay: Passive avoidance test: dementia treatment test (scopolamine)
Format: in vivo
Conditions: scopolamine 1 mg/kg intraperitoneally after training; test after 24 hours; FIG. 5B
Protocol: A passive avoidance test was carried out using a Gemini avoidance system (San Diego Instruments, USA) one hour after extracts (fraction T, fraction C, fraction CM, or fraction M) of Fructus Psoraleae were orally administered to a male ICR mouse (20 g) in a dose of 10 mg/kg. The test was modified on the basis of a method by Kumar, et al. and carried out as follows (Kumar, V., Singh, P. N., Muruganandan, A. V., Bhattacharya, Effect of Indian Hypericum perforatum Linn on animal models of cognitive dysfunction; J Ethnopharmacology 72, p 119-128, 2000).
On the first day of a training test, a mouse was put into the bright box to be acclimated for 300 seconds, prior to moving the mouse into a dark box by automatically opening a door. If the mouse moved into a dark box, it was electrically stimulated one second at 0.3 mA. As soon as a training session was finished, scopolamine was intraperitoneally administered in a dose of 1 mg/kg. At the test after 24 hours, the mouse was acclimated in the bright box for 300 seconds, prior to moving the mouse into the dark box by opening a door. The time to move into the dark box was measured at this time. […]

Compound: CN1[C@@H]2C[C@@H](OC(=O)[C@H](CO)c3ccccc3)C[C@H]1[C@@H]1O[C@@H]12 [scopolamine]
- memory failure compared with a control group: 66.6%
